Measurements taken from PubChem BioAssay AID248 (DTP/NCI, 2004).
Values joined by “and” are separate entries in the source; they are usually repeats but may differ in a detail not shown here. Equal values may be shown once. Toxic doses and inconclusive results are not listed. Rule as the data show it: active = T/C of 150% or more; inactive = T/C below 125%.

Tested on: L1210 leukemia ip in BDF1 mice, survival T/C
Assay: NCI In Vivo Anticancer Drug Screen. Data for tumor model L1210 Leukemia (intraperitoneal) in B6D2F1 (BDF1) mice
Details: endpoint: mean survival time, higher = longer survival
Summary of the method: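 Transplanted-tumor mice were given test agent; controls received vehicle only. Survival readings from the two groups were divided (treated over control).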

[1] = dose: 100.0 mg/kg/injection, schedule: Q01DX001 (ip), vehicle: saline
[2] = dose: 200.0 mg/kg/injection, schedule: Q01DX001 (ip), vehicle: saline
[3] = dose: 400.0 mg/kg/injection, schedule: Q01DX001 (ip), vehicle: saline
[4] = dose: 25.0 mg/kg/injection, schedule: Q01DX009 (ip), vehicle: saline
[5] = dose: 50.0 mg/kg/injection, schedule: Q01DX009 (ip), vehicle: saline
[6] = dose: 100.0 mg/kg/injection, schedule: Q04DX003 (ip), vehicle: saline
[7] = dose: 100.0 mg/kg/injection, schedule: Q01DX009 (ip), vehicle: saline with Tween-80
[8] = dose: 200.0 mg/kg/injection, schedule: Q01DX009 (ip), vehicle: saline with Tween-80
[9] = dose: 400.0 mg/kg/injection, schedule: Q01DX009 (ip), vehicle: saline with Tween-80
[10] = dose: 100.0 mg/kg/injection, schedule: Q04DX002 (ip), vehicle: saline with Tween-80
[11] = dose: 100.0 mg/kg/injection, schedule: Q01DX009 (ip), vehicle: Klucel (hydroxypropylcellulose) (HPC)
[12] = dose: 100.0 mg/kg/injection, schedule: Q04DX003 (ip), vehicle: Klucel (hydroxypropylcellulose) (HPC)
[13] = dose: 200.0 mg/kg/injection, schedule: Q01DX009 (ip), vehicle: Klucel (hydroxypropylcellulose) (HPC)
[14] = dose: 200.0 mg/kg/injection, schedule: Q04DX003 (ip), vehicle: Klucel (hydroxypropylcellulose) (HPC)
[15] = dose: 400.0 mg/kg/injection, schedule: Q01DX009 (ip), vehicle: Klucel (hydroxypropylcellulose) (HPC)
[16] = dose: 400.0 mg/kg/injection, schedule: Q04DX003 (ip), vehicle: Klucel (hydroxypropylcellulose) (HPC)
[17] = dose: 50.0 mg/kg/injection, schedule: Q01DX001 (ip), vehicle: saline

Measured: T/C

CC12CC3(C)CC(C)(C1)CC(NC(=O)N(CCF)N=O)(C2)C3
inactive: dose: 30.0 mg/kg/injection, schedule: Q01DX001 (ip), vehicle: other 113 % of control | dose: 40.0 mg/kg/injection, schedule: Q01DX001 (ip), vehicle: other 117 % of control | dose: 375.0 mg/kg/injection, schedule: Q01DX001 (ip), vehicle: other 87 % of control
active: dose: 187.0 mg/kg/injection, schedule: Q01DX001 (ip), vehicle: other 151 % of control

O=C(O)COc1ccccc1F
inactive: dose: 100.0 mg/kg/injection, schedule: Q04DX002 (ip), vehicle: Klucel (hydroxypropylcellulose) (HPC) 113 % of control | dose: 200.0 mg/kg/injection, schedule: Q04DX002 (ip), vehicle: Klucel (hydroxypropylcellulose) (HPC) 98 % of control | dose: 400.0 mg/kg/injection, schedule: Q04DX002 (ip), vehicle: Klucel (hydroxypropylcellulose) (HPC) 98 % of control

O=C1OC(=O)C2C(c3ccccc3)=CC(c3ccccc3)=CC12 (configuration not stated)
inactive: [1] 98 % of control | [2] 107 % of control | [3] 102 % of control

c1ccc(N=Nc2ccncc2)cc1
inactive: dose: 6.25 mg/kg/injection, schedule: Q04DX003 (ip), vehicle: saline with Tween-80 101 % of control | dose: 12.5 mg/kg/injection, schedule: Q04DX003 (ip), vehicle: saline with Tween-80 92 % of control | dose: 25.0 mg/kg/injection, schedule: Q04DX003 (ip), vehicle: saline with Tween-80 97 % of control

COC(=O)c1ccc(C(C)=O)cc1
inactive: dose: 100.0 mg/kg/injection, schedule: Q01DX001 (ip), vehicle: saline with Tween-80 103 % of control | dose: 200.0 mg/kg/injection, schedule: Q01DX001 (ip), vehicle: saline with Tween-80 97 % of control | dose: 400.0 mg/kg/injection, schedule: Q01DX001 (ip), vehicle: saline with Tween-80 100 % of control

CCOC(=O)NC(NC(=O)OCC)C(Cl)Cl
inactive: [1] 101 % of control | [2] 103 % of control | [3] 103 % of control

OC1(c2ccc(Cl)cc2)CCN(C2CC2c2ccccc2)CC1 (configuration not stated)
inactive: dose: 100.0 mg/kg/injection, schedule: Q01DX001 (ip), vehicle: Klucel (hydroxypropylcellulose) (HPC) 98 % of control | dose: 200.0 mg/kg/injection, schedule: Q01DX001 (ip), vehicle: Klucel (hydroxypropylcellulose) (HPC) 97 % of control | dose: 400.0 mg/kg/injection, schedule: Q01DX001 (ip), vehicle: Klucel (hydroxypropylcellulose) (HPC) 98 % of control

COc1cc(N2CCOCC2)ccc1N
inactive: [4] 89 % of control | dose: 25.0 mg/kg/injection, schedule: Q04DX003 (ip), vehicle: saline 100 % of control | [5] 95 % of control | dose: 50.0 mg/kg/injection, schedule: Q04DX003 (ip), vehicle: saline 101 % of control | [6] 103 % of control

Cc1ccc(Cl)cc1NC(=O)OCCCl
inactive: [7] 95 % of control | [6] 97 % of control | [8] 91 % of control | dose: 200.0 mg/kg/injection, schedule: Q04DX003 (ip), vehicle: saline 100 % of control | [9] 91 % of control | dose: 400.0 mg/kg/injection, schedule: Q04DX003 (ip), vehicle: saline 95 % of control

O=C1CCC2C1CC1CC3C(=O)CCC3C12 (configuration not stated)
inactive: dose: 50.0 mg/kg/injection, schedule: Q04DX002 (ip), vehicle: saline with Tween-80 113 % of control | [10] 98 % of control

COc1ccc(OC)c2c(C)cc(=O)[nH]c12
inactive: [1] 97 % of control | [2] 98 % of control

CC(C)Cc1ccccn1
inactive: dose: 25.0 mg/kg/injection, schedule: Q01DX009 (ip), vehicle: Klucel (hydroxypropylcellulose) (HPC) 96 % of control | dose: 50.0 mg/kg/injection, schedule: Q01DX009 (ip), vehicle: Klucel (hydroxypropylcellulose) (HPC) 98 % of control | [11] 91 % of control

NC(=O)c1ccccc1NC(=O)COc1ccc(Cl)cc1
inactive: [11] 95 % of control | [12] 97 % of control | [13] 92 % of control | [14] 98 % of control | [15] 97 % of control | [16] 106 % of control

COc1ccc(/C=N/NC(=O)c2ccc(Cl)cc2)cc1
inactive: dose: 50.0 mg/kg/injection, schedule: Q01DX009 (ip), vehicle: saline with Tween-80 88 % of control | [7] 105 % of control | [8] 91 % of control

CC[CH2][Sn]([Cl])([Cl])[CH2]CC.Oc1ccccc1C=NCCN=Cc1ccccc1O
inactive: dose: 2.5 mg/kg/injection, schedule: Q01DX009 (ip), vehicle: saline with Tween-80 101 % of control and 109 % of control | dose: 5.0 mg/kg/injection, schedule: Q01DX009 (ip), vehicle: saline with Tween-80 113 % of control | dose: 6.6 mg/kg/injection, schedule: Q01DX009 (ip), vehicle: saline with Tween-80 87 % of control

COc1ccc(Cl)cc1NC(=O)Oc1ccc(F)cc1
inactive: [11] 87 % of control | [13] 97 % of control | [15] 87 % of control

O=C(O)C1C2C=CC(C3C=CC32)C1C(=O)O (configuration not stated)
inactive: dose: 6.25 mg/kg/injection, schedule: Q01DX009 (ip), vehicle: saline 98 % of control | dose: 12.5 mg/kg/injection, schedule: Q01DX009 (ip), vehicle: saline 110 % of control | [4] 102 % of control and 115 % of control | [5] 96 % of control and 105 % of control | dose: 100.0 mg/kg/injection, schedule: Q01DX009 (ip), vehicle: saline 100 % of control | dose: 200.0 mg/kg/injection, schedule: Q01DX009 (ip), vehicle: saline 100 % of control | dose: 400.0 mg/kg/injection, schedule: Q01DX009 (ip), vehicle: saline 94 % of control

NC(=O)c1[nH]cnc1N
inactive: [1] 97 % of control | [2] 101 % of control | [3] 97 % of control

C#CCOC1CCCCO1 (configuration not stated)
inactive: [6] 104 % of control

COC(=O)CCC(=O)CCC(C)C
inactive: [7] 110 % of control | dose: 100.0 mg/kg/injection, schedule: Q04DX003 (ip), vehicle: saline with Tween-80 103 % of control | [8] 92 % of control | [9] 101 % of control | dose: 400.0 mg/kg/injection, schedule: Q04DX003 (ip), vehicle: saline with Tween-80 93 % of control

[O-][n+]1c2ccccc2nc2ccccc21
inactive: [12] 98 % of control | [14] 98 % of control | [16] 89 % of control

CCN1CCCCCCCCCC(=N/O)/C(=N\O)C1
inactive: [17] 101 % of control | [1] 103 % of control | [2] 95 % of control

CC(c1ccc(Br)cc1)N(C)C (configuration not stated)
inactive: dose: 10.0 mg/kg/injection, schedule: Q01DX001 (ip), vehicle: saline 102 % of control | dose: 20.0 mg/kg/injection, schedule: Q01DX001 (ip), vehicle: saline 93 % of control | dose: 40.0 mg/kg/injection, schedule: Q01DX001 (ip), vehicle: saline 98 % of control | dose: 80.0 mg/kg/injection, schedule: Q01DX001 (ip), vehicle: saline 98 % of control

CCCCCCC[n+]1ccc(C(=O)c2ccccc2)cc1
inactive: dose: 75.0 mg/kg/injection, schedule: Q01DX001 (ip), vehicle: carboxymethylcellulose (CMC) 96 % of control | dose: 300.0 mg/kg/injection, schedule: Q01DX001 (ip), vehicle: carboxymethylcellulose (CMC) 105 % of control

Nc1nc2c(c(=O)[nH]1)NC(CCNc1ccc(C(=O)NC(CCC(=O)O)C(=O)O)cc1)CN2 (configuration not stated)
inactive: dose: 50.0 mg/kg/injection, schedule: Q01DX001 (ip), vehicle: other 104 % of control | [17] 113 % of control | dose: 100.0 mg/kg/injection, schedule: Q01DX001 (ip), vehicle: other 101 % of control | [1] 116 % of control | dose: 108.0 mg/kg/injection, schedule: Q01DX009 (ip), vehicle: other 119 % of control | dose: 200.0 mg/kg/injection, schedule: Q01DX001 (ip), vehicle: other 110 % of control | [2] 107 % of control | dose: 300.0 mg/kg/injection, schedule: Q01DX009 (ip), vehicle: other 116 % of control | dose: 400.0 mg/kg/injection, schedule: Q01DX001 (ip), vehicle: other 110 % of control | [3] 115 % of control | dose: 500.0 mg/kg/injection, schedule: Q01DX009 (ip), vehicle: other 112 % of control

O=C([O][Bi]([c]1ccccc1)[c]1ccccc1)C(F)(F)F
inactive: [10] 95 % of control | dose: 200.0 mg/kg/injection, schedule: Q04DX002 (ip), vehicle: saline with Tween-80 95 % of control | dose: 400.0 mg/kg/injection, schedule: Q04DX002 (ip), vehicle: saline with Tween-80 92 % of control
